The values that follow come from US8741889B2, “Method of treating non-small cell lung cancer and colon cancer with gamma-secretase inhibitor” (Hoffmann-La Roche Inc, priority 2008, dated 2014).

Each structure is given as a SMILES string.

Experiment [1] has as its system MiaPaca2 human pancreatic carcinoma xenografts. In words: Antitumor efficacy in MiaPaca2 pancreatic xenografts in nude mice. Conditions: 60 mg/kg ip q3d, day 37. The format is in vivo. As for the experimental part: Female (athymic nu/nu) nude mice were obtained from Charles River Laboratories (Wilmington, Mass.), while female SCID-beige mice were purchased from Taconic (Germantown, N.Y.). Mice were used when they were approximately 8-12 weeks old (nudes) or 8-10 weeks old (SCID-beige), and weighed approximately 23-25 grams. The health of all animals was determined daily by gross observation of experimental animals and by the analyses of blood samples of sentinel animals that were housed on the shared shelf racks. All animals were allowed to acclimate and recover from any shipping related stress for a minimum of 72 hours prior to experimental use. Autoclaved water and irradiated food [5058-ms Pico chow (mouse) Purina, Richmond, Ind.] were provided ad libitum, and the animals were maintained on a 12 hour light and dark cycle. Cages, bedding and water bottles were autoclaved before use and were changed weekly. MiaPaca2, AsPC1 and BxPC3 human pancreatic carcinoma cells were purchased from ATCC (Manassas, Va.). BxPC3 and AsPC1 cells were grown in RPMI medium and MiaPaca2 cells were grown in Dulbecco's Modified Essential Medium (DMEM). All culture media were supplemented with 10% (v/v) FBS and 1% (v/v) […]. […] SCID-biege mice were implanted se with 5×10^6 BxPC3 cells in a 1:1 mixture of matrigel:PBS in a volume of 0.2 ml per mouse in the right hind flank on May 22, 2007. […] Formulated compound and vehicle were stored at 4° C. and prepared weekly. The suspension was mixed vigorously prior to administration. Gemcitabine (Gemzar®, Eli Lilly and Company, Indianapolis, Ind., USA) was reconstituted with sterile saline to yield a stock solution of 38 mg/ml for the entire 3-4 week study. […] Nude mice implanted with MiaPaca2 or AsPC1 xenografts were randomized on day 17 and day 9 post cell implant, respectively. SCID-beige mice bearing BxPC3 xenografts were randomized 8 days post implant. […] Treatment for the MiaPaca2 study began on Feb. […] For the MiaPaca2 and AsPC1 studies, qd Compound (1) suspension or q3d gemcitabine treatment ended on day 37 post tumor cell implant, whereas for the BxPC3 study, qd Compound (1) suspension or q3d gemcitabine treatment ended on day 35 post tumor cell implant. For intermittent dosing of Compound (1) suspension in the MiaPaca2 study using the 7+/7−/7+ schedule, treatment ended on day 23, was reinitiated on day 31, and ended day 37. In the combination groups Compound (1) suspension was given sequentially with gemcitabine using the 7+/7−/7+ schedule so that Compound (1) was dosed daily only during the first and third weeks, whereas gemcitabine was dosed q3d during the second week only. Efficacy data was graphically represented as the mean tumor volume+standard error of the mean (SEM). Tumor volumes of treated groups were presented as percentages of tumor volumes of the control groups (% T/C), using the formula: 100×((T−T0)/(C−C0)), where T represented mean tumor volume of a treated group on a specific day during the experiment, T0 represented mean tumor volume of the same […] on the first day of treatment; C represented mean tumor volume of a control group on the specific day during the experiment, and C0 represented mean tumor volume of the same treated group on the first day of treatment. Tumor volume (in cubic millimeters) was calculated using the ellipsoid formula: (D×(d2))/2 where ‘D’ represents the large diameter of the tumor, and ‘d’ represents the small diameter. In some cases, tumor regression and/or percent change in tumor volume was calculated using the formula: ((T−T0)/T0)×100 where ‘T’ represents mean tumor volume of the treated group at a particular day, and ‘T0’ represents mean tumor volume of the same treated group at initiation of treatment. Statistical analysis was determined by the rank sum test and One Way Anova and a post-hoc Bonferroni t-test (SigmaStat, version 2.0, Jandel Scientific, San Francisco, Calif.). […]

The test system of experiment [2] is AsPC1 human pancreatic carcinoma xenografts. In words: Antitumor efficacy in AsPC1 pancreatic xenografts in nude mice. The format is in vivo. Conditions: 90 mg/kg ip q3d. As for the experimental part: Female (athymic nu/nu) nude mice were obtained from Charles River Laboratories (Wilmington, Mass.), while female SCID-beige mice were purchased from Taconic (Germantown, N.Y.). Mice were used when they were approximately 8-12 weeks old (nudes) or 8-10 weeks old (SCID-beige), and weighed approximately 23-25 grams. The health of all animals was determined daily by gross observation of experimental animals and by the analyses of blood samples of sentinel animals that were housed on the shared shelf racks. All animals were allowed to acclimate and recover from any shipping related stress for a minimum of 72 hours prior to experimental use. Autoclaved water and irradiated food [5058-ms Pico chow (mouse) Purina, Richmond, Ind.] were provided ad libitum, and the animals were maintained on a 12 hour light and dark cycle. Cages, bedding and water bottles were autoclaved before use and were changed weekly. MiaPaca2, AsPC1 and BxPC3 human pancreatic carcinoma cells were purchased from ATCC (Manassas, Va.). BxPC3 and AsPC1 cells were grown in RPMI medium and MiaPaca2 cells were grown in Dulbecco's Modified Essential Medium (DMEM). All culture media were supplemented with 10% (v/v) FBS and 1% (v/v) […]. […] SCID-biege mice were implanted se with 5×10^6 BxPC3 cells in a 1:1 mixture of matrigel:PBS in a volume of 0.2 ml per mouse in the right hind flank on May 22, 2007. […] Formulated compound and vehicle were stored at 4° C. and prepared weekly. The suspension was mixed vigorously prior to administration. Gemcitabine (Gemzar®, Eli Lilly and Company, Indianapolis, Ind., USA) was reconstituted with sterile saline to yield a stock solution of 38 mg/ml for the entire 3-4 week study. […] Nude mice implanted with MiaPaca2 or AsPC1 xenografts were randomized on day 17 and day 9 post cell implant, respectively. SCID-beige mice bearing BxPC3 xenografts were randomized 8 days post implant. […] Treatment for the MiaPaca2 study began on Feb. […] For the MiaPaca2 and AsPC1 studies, qd Compound (1) suspension or q3d gemcitabine treatment ended on day 37 post tumor cell implant, whereas for the BxPC3 study, qd Compound (1) suspension or q3d gemcitabine treatment ended on day 35 post tumor cell implant. For intermittent dosing of Compound (1) suspension in the AsPC1 study using the 7+/7− schedule×2 cycles, treatment ended on day 15, was reinitiated on day 23, and finally ended day 29. For intermittent dosing using the 3+/4− schedule×4 cycles, treatment ended on day 11, was reinitiated on day 16, ended day 18, was reinitiated on day 23, ended day 25, was reinitiated day 30, and finally ended on day 32. In the first combination group, daily Compound (1) was given simultaneously with q3d gemcitabine for a total of four weeks. For the remaining combination groups, Compound (1) and gemcitabine were given sequentially rather than simultaneously. In group 8 gemcitabine was dosed q3d during the 1st and 3rd weeks, whereas Compound (1) was given daily during the 2nd and 4th weeks only. In group 9, the order of compound dosing was reversed, with Compound (1) suspension given daily during the 1st and 3rd weeks, whereas gemcitabine was given q3d during the 2nd and 4th weeks. In group 10, gemcitabine was dosed q3d during the 1st and 2nd weeks, whereas Compound (1) was given daily during the 3rd and 4th weeks. In group 11, the order of compound dosing was reversed, with Compound (1) given daily during the 1st and 2nd weeks, and gemcitabine dosed q3d for the 3rd and 4th weeks. […]

`Nc1ccn([C@@H]2O[C@H](CO)[C@@H](O)C2(F)F)c(=O)n1` [gemcitabine, Gemcitabine, reference compound]: the “% TGI” value in experiment [1] is listed as 62%; in experiment [2] it was 39%.
